Literature values in patent publication US8349982B2, “Macromonomers and hydrogels” (William Marsh Rice University, priority 2006, dated 2013).

Settings: stated as typical

SMILES: C=CC(=O)OCC(CO)(COC(=O)C=C)COC(=O)CCCCCCCCCCCCCCCCC [PEDAS, Pentaerythritol diacrylate monostearate]
- Solubility in water (in words): insoluble in water
